In patent US9005673B2, “Preservative and additive for food and feed” (priority 2005, dated 2015):

Experiment: Contact of acid solutions with human skin
Conditions: solution with a pH of less than 0.5

O=S(=O)(O)O [sulfuric acid]
irritation of a hand put into the solution: an irritation would occur
